Columns and labels:
Enterococcus sp. = assay: In vitro antibacterial evaluation: minimum inhibitory concentration (MIC), broth dilution method; format: cell-based
In short: (§1)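 First, organisms are seeded at 5×10^5 CFU/mL into Muller-Hinton II […]. Next, antibiotic is applied across 64-0.06 μg/mL by broth dilution (NCCLS M7-A2). Finally, the lowest inhibitory concentration is recorded as MIC.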

Escherichia coli = assay: as above; format: cell-based
In short: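 Inoculum: 5×10^5 CFU/mL. Range: 64-0.06 μg/mL. Medium: Muller-Hinton II […]; NCCLS M7-A2 broth dilution. Endpoint: lowest concentration inhibiting growth. Strains include methicillin-, penicillin- and/or vancomycin-resistant clinical isolates.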

Staphylococcus sp. = assay: as above; format: cell-based; conditions: broth dilution, 18 hours at 35° C.
In short: as §1

Streptococcus sp. = assay: as above; format: cell-based
In short: as §1

[1] = test system: Staphylococcus aureus-SMITH (GC 4543); assay: Acute lethal infection in mice (ED50); format: in vivo; conditions: female CD-1 mice, intraperitoneal challenge, intravenous dose 30 min. after infection, 7 day survival ratios
Description: The therapeutic effects of glycopeptide antibiotics of Formula I are determined against acute lethal infections with S. aureus (strain Smith), a penicillin resistant strain of S. pneumoniae (strain GC 1894), and a vancomycin resistant strain of E. fecalis (strain GC 6189 and GC 2246). Female mice, CD-1 (Charles River Laboratories), 20 +1-2 gm, are challenged by intraperitoneal injection of sufficient bacteria (suspended in Trypticase Soy Broth or hog gastric mucin) to kill non-treated controls within 24-48 hr. Antibacterial agents, contained in 0.2 mL of saline or 5% dextrose solution, are administered intravenously 30 min. after infection. Five mice are treated at each dose level. The 7 day survival ratios from 3 separate tests are pooled for calculation of median effective dose (ED50).

[2] = broth dilution, inoculum 5×10^5 CFU/mL, 18 hours at 35° C.

Cc1ccc(Oc2ccc(C3OCC4OC(OC5C(CO)OC(Oc6ccc(CC7NC(=O)C(C(C)c8ccccc8)NC(=O)CNC(=O)C(CO)NC(=O)C(C(O)C8CNC(=N)N8C8OC(CO)C(O)C(O)C8O)NC(=O)C(C(O)C8CNC(=N)N8)NC7=O)cc6)C(O)C5O)C(O)C(O)C4O3)cc2)cc1 (stereo not drawn) [Example 174, Cyclo[glycyl-β-methylphenylalanyl-O-[4-O-[4,6-O-[4-(4-methylphenoxy)benzylidene]hexopyranosyl]hexopyranosyl]tyrosyl-3-(2-iminoimidazolidin-4-yl)seryl-3-(3-hexopyranosyl-2-iminoimidazolidin-4-yl)serylseryl]]
<0.06 µg/mL: MIC Streptococcus agalactiae (GC 4564) (Streptococcus sp.; [2]) | MIC Streptococcus pneumoniae (ATCC 6301) (Streptococcus sp.; [2]) | MIC Streptococcus pneumoniae (GC 1894) (Streptococcus sp.; [2]) | MIC Streptococcus pneumoniae (GC 4565) (Streptococcus sp.; [2]) | MIC Streptococcus pyogenes (GC 4563) (Streptococcus sp.; [2]) | MIC Streptococcus pneumoniae (ATCC 6301) (Streptococcus sp.; strain ATCC 6301) | MIC Streptococcus pneumoniae (GC 1894) (Streptococcus sp.; strain GC 1894) | MIC Streptococcus pyogenes (GC 4563) (Streptococcus sp.; strain GC 4563) | MIC Streptococcus agalactiae (GC 4564) (Streptococcus sp.; strain GC 4564) | MIC Streptococcus pneumoniae (GC 4565) (Streptococcus sp.; strain GC 4565)
0.08 mg/kg: median effective dose (ED50), Staphylococcus aureus-SMITH (GC 4543) [1]
0.5 µg/mL: MIC Coagulase Negative Staphylococcus (GC 4548) (Staphylococcus sp.; 5×10^5 CFU/mL) | MIC Coagulase Negative Staphylococcus (GC 6257) (Staphylococcus sp.; 5×10^5 CFU/mL)
1 µg/mL: MIC Enterococcus faecalis (GC 4552) (Enterococcus sp.; [2]) | MIC Enterococcus faecalis (GC 4553) (Enterococcus sp.; [2]) | MIC Enterococcus faecalis (GC 4554) (Enterococcus sp.; [2]) | MIC Enterococcus faecium (GC 2243) (Enterococcus sp.; [2]) | MIC Enterococcus faecium (GC 4556) (Enterococcus sp.; [2]) | MIC Enterococcus faecium (GC 2243) (Enterococcus sp.; strain GC 2243) | MIC Enterococcus faecalis (GC 4552) (Enterococcus sp.; strain GC 4552) | MIC Enterococcus faecalis (GC 4553) (Enterococcus sp.; strain GC 4553) | MIC Enterococcus faecalis (GC 4554) (Enterococcus sp.; strain GC 4554) | MIC Enterococcus faecium (GC 4556) (Enterococcus sp.; strain GC 4556) | MIC Coagulase Negative Staphylococcus (GC 4549) (Staphylococcus sp.; 5×10^5 CFU/mL) | MIC Coagulase Negative Staphylococcus (GC 4551) (Staphylococcus sp.; 5×10^5 CFU/mL) | MIC Staphylococcus aureus (GC 1131) (Staphylococcus sp.; 5×10^5 CFU/mL) | MIC Staphylococcus aureus (GC 4544) (Staphylococcus sp.; 5×10^5 CFU/mL) | MIC Staphylococcus aureus (GC 4545) (Staphylococcus sp.; 5×10^5 CFU/mL) | MIC Staphylococcus aureus-SMITH (GC 4543) (Staphylococcus sp.; 5×10^5 CFU/mL) | MIC Staphylococcus aureus (GC 1131) (Staphylococcus sp.; strain GC 1131) | MIC Staphylococcus aureus (GC 4544) (Staphylococcus sp.; strain GC 4544) | MIC Staphylococcus aureus (GC 4545) (Staphylococcus sp.; strain GC 4545)
4 µg/mL: MIC Escherichi coli (GC 4560) (Escherichia coli; strain GC 4560)
2 µg/mL: MIC Enterococcus avium (GC 4558) (Enterococcus sp.; [2]) | MIC Enterococcus faecalis (ATCC 29212) (Enterococcus sp.; [2]) | MIC Enterococcus faecalis (GC 2242) (Enterococcus sp.; [2]) | MIC Enterococcus faecalis (GC 2691) (Enterococcus sp.; [2]) | MIC Enterococcus faecalis (GC 3059) (Enterococcus sp.; [2]) | MIC Enterococcus faecalis (GC 6189) (Enterococcus sp.; [2]) | MIC Enterococcus faecium (GC 4557) (Enterococcus sp.; [2]) | MIC Enterococcus faecalis (ATCC 29212) (Enterococcus sp.; strain ATCC 29212) | MIC Enterococcus faecalis (GC 2242) (Enterococcus sp.; strain GC 2242) | MIC Enterococcus faecalis (GC 2691) (Enterococcus sp.; strain GC 2691) | MIC Enterococcus faecalis (GC 3059) (Enterococcus sp.; strain GC 3059) | MIC Enterococcus faecium (GC 4557) (Enterococcus sp.; strain GC 4557) | MIC Enterococcus avium (GC 4558) (Enterococcus sp.; strain GC 4558) | MIC Enterococcus faecalis (GC 6189) (Enterococcus sp.; strain GC 6189) | MIC Coagulase Negative Staphylococcus (GC 4547) (Staphylococcus sp.; 5×10^5 CFU/mL) | MIC Staphylococcus aureus (ATCC 29213) (Staphylococcus sp.; 5×10^5 CFU/mL) | MIC Staphylococcus aureus (GC 3051) (Staphylococcus sp.; 5×10^5 CFU/mL) | MIC Staphylococcus aureus (GC 3053) (Staphylococcus sp.; 5×10^5 CFU/mL) | MIC Staphylococcus aureus (GC 4541) (Staphylococcus sp.; 5×10^5 CFU/mL) | MIC Staphylococcus aureus (GC 4542) (Staphylococcus sp.; 5×10^5 CFU/mL) | MIC Staphylococcus haemolyticus (GC 4546) (Staphylococcus sp.; 5×10^5 CFU/mL) | MIC Staphylococcus aureus (ATCC 29213) (Staphylococcus sp.; strain ATCC 29213) | MIC Staphylococcus aureus (GC 3051) (Staphylococcus sp.; strain GC 3051) | MIC Staphylococcus aureus (GC 3053) (Staphylococcus sp.; strain GC 3053) | MIC Staphylococcus aureus (GC 4541) (Staphylococcus sp.; strain GC 4541) | MIC Staphylococcus aureus (GC 4542) (Staphylococcus sp.; strain GC 4542)
>64 µg/mL: MIC Escherichia coli (ATCC 25922) (Escherichia coli; strain ATCC 25922) | MIC Escherichia coli (GC 4559) (Escherichia coli; strain GC 4559)

Reference: US8247211B2, “Glycopeptide antibiotics” (American Cyanamid Company, priority 2001, dated 2012)
